Source: PMC11946893 (Nature, 2025)
Peptide text beside a SMILES is read from it.

Tests used:
CaCo-2 monolayer = test: TEER assay, CaCo-2 monolayer cocultured with P. aeruginosa; format: cell-based, human; settings: P. aeruginosa coculture, 6 h, n = 3
S. typhimurium = test: Intracellular infection assay; format: cell-based, S. typhimurium SL1344 in A549 cells; settings: A549 cells expressing dTAG–PPP1CB pre-incubated 1 h with dTAG^V-1
S. enterica = test: Bacterial growth in conditioned medium; format: cell-based, Salmonella enterica
M. luteus = test: Intracellular infection assay; format: cell-based, M. luteus in A549 cells; settings: A549 cells expressing dTAG–PPP1CB pre-incubated 1 h with dTAG^V-1

## CC[C@H](C)[C@H](NC(=O)[C@H](CC(N)=O)NC(=O)[C@H](Cc1ccccc1)NC(=O)[C@H](CCCNC(=N)N)NC(=O)[C@H](CCCNC(=N)N)NC(=O)[C@@H](N)CCCCN)C(=O)N[C@@H](CCCCN)C(=O)N[C@@H](CC(C)C)C(=O)N[C@@H](Cc1c[nH]c2ccccc12)C(=O)N[C@@H](CCCCN)C(=O)N[C@H](C(=O)N[C@@H](Cc1ccccc1)C(=O)O)[C@@H](C)O [PPP1CB] (H-KRRFNIKLWKTF-OH)
CaCo-2 monolayer
  disruption of CaCo-2 barrier integrity by P. aeruginosa (TEER barrier index): fully abolished

## CC[C@H](C(=O)N1CCCC[C@H]1C(=O)O[C@H](CCc1ccc(OC)c(OC)c1)c1ccccc1OCC(=O)NCCCCCCC(=O)N[C@H](C(=O)N1C[C@H](O)C[C@H]1C(=O)N[C@@H](C)c1ccc(-c2scnc2C)cc1)C(C)(C)C)c1cc(OC)c(OC)c(OC)c1 [dTAG^V-1]
S. typhimurium
  intracellular bacterial infection (CFU counts, imaging): attenuated intracellular bacterial infection significantly
S. enterica; A549 cells expressing dTAG–PPP1CB, 500 nM dTAG^V-1 for 6 h vs DMSO
  reduction of bacterial growth in conditioned medium: 20%
M. luteus
  intracellular bacterial infection (CFU counts): attenuated intracellular bacterial infection significantly

## CC(=O)N[C@@H](CC(C)C)C(=O)N[C@@H](CC(C)C)C(=O)N[C@H](C=O)CCCNC(=N)N [leupeptin]
S. enterica; medium from cells treated with leupeptin 20 µM for 6 h
  bacterial growth in conditioned medium: increase in bacterial growth
